# Laboratory results published in patent US20230391739A1, “ARYL DERIVATIVES FOR TREATING TRPM3 MEDIATED DISORDERS” (Katholieke Universiteit Leuven, priority 2020, published 2023).
# Molecular target: T1, mouse TRPM3α2 (mTRPM3) ion channel (Mus musculus, UniProt J9SQF3)
# T1 construct: expressed in transfected cells; host or cells: flip-in HEK293
# Assay: TRPM3 ion channel driven Ca2+ uptake, Fluo-4 AM assay, PS-stimulated (mTRPM3)
# Assay type: cell-based
# Details: TRPM3 overexpressing flip-in HEK293 cells stimulated with Pregnenolone sulfate (PS) 50 μM, activity ranges A, B, C
# Summary of the method: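 Ca²⁺ influx through mouse TRPM3α2, opened by 50 μM pregnenolone sulfate, was tracked with Fluo-4 AM in stably transfected HEK293 cells read directly after seeding onto pre-dispensed compound.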
# T1 sequence (J9SQF3 1-1709 isoform J9SQF3-12): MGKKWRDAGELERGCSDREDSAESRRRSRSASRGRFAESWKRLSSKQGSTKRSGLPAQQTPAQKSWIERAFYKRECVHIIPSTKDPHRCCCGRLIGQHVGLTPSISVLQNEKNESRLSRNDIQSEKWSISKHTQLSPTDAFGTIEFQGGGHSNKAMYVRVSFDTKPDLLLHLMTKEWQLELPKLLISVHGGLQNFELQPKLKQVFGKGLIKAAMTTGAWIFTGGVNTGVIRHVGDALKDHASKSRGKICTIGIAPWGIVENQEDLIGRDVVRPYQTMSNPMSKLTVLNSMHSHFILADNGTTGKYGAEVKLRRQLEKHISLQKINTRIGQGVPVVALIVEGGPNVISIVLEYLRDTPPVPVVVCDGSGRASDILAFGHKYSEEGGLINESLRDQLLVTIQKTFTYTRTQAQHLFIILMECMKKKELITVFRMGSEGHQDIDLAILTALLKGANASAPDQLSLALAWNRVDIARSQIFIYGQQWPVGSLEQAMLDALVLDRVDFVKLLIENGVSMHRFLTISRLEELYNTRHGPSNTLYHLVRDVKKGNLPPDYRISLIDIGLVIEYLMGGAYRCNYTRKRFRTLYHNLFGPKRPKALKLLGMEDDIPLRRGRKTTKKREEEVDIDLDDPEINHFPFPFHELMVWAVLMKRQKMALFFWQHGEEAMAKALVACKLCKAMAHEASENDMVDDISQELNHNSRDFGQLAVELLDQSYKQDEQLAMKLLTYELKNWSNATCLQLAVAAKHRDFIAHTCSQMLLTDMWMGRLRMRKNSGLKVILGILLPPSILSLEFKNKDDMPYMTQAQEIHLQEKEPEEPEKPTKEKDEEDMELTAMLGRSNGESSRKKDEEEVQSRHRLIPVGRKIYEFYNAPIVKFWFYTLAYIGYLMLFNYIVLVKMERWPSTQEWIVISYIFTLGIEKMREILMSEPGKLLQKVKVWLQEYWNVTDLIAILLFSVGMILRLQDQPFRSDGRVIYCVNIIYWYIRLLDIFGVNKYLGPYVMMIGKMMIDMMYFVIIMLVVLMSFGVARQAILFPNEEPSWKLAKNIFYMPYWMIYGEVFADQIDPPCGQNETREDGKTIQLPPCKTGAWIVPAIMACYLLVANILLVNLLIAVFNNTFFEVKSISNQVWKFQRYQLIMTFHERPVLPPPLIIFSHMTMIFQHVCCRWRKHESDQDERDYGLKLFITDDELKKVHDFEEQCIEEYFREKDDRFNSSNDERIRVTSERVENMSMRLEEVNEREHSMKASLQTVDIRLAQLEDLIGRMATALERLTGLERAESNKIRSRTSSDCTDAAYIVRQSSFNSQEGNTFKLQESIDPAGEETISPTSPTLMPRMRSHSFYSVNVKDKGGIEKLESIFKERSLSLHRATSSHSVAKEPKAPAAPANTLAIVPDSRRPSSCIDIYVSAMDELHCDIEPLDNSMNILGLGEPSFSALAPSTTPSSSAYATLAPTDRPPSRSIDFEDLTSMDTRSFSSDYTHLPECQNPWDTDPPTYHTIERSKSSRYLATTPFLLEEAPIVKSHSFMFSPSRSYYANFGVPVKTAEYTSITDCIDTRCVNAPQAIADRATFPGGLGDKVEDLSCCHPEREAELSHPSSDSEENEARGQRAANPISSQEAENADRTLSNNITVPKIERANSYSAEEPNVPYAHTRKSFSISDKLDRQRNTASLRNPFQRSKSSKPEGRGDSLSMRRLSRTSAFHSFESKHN
row,Compound,IC50 [nM]
1,"Cc1oc2ccc(OCc3ccccc3)cc2c1C(=O)NC1CCN(C)C(=O)C1 (centres unmarked) [Cpd 146, 5-(benzyloxy)-2-methyl-N-(1-methyl-2-oxopiperidin-4-yl)benzofuran-3-carboxamide]",1000 to 20000
2,"CCN1CCC(NC(=O)c2c(C)oc3ccc(OCc4ccccc4)cc23)C1=O (centres unmarked) [Cpd 147, 5-(benzyloxy)-N-(1-ethyl-2-oxopyrrolidin-3-yl)-2-methylbenzofuran-3-carboxamide]",< 1000
3,"Cc1oc2ccc(OCc3ccccc3)cc2c1C(=O)NC1CN(C2COC2)C1 [Cpd 148, 5-(benzyloxy)-2-methyl-N-(1-(oxetan-3-yl)azetidin-3-yl)benzofuran-3-carboxamide]",< 1000
4,"CCN1CCCN(C(=O)c2c(C)oc3ccc(OCc4ccccc4)cc23)CC1 [Cpd 149, (5-(benzyloxy)-2-methylbenzofuran-3-yl)(4-ethyl-1,4-diazepan-1-yl)methanone]",> 20000
5,"Cc1oc2ccc(OCc3ccccc3)cc2c1C(=O)N1CCCC(N(C)C)C1 (centres unmarked) [Cpd 150, (5-(benzyloxy)-2-methylbenzofuran-3-yl)(3-(dimethylamino)piperidin-1-yl)methanone]",> 20000
6,"CCN1CCC(NC(=O)c2c(C)oc3ccc(OCc4ccccc4)cc23)CC1 [Cpd 151, 5-(benzyloxy)-N-(1-ethylpiperidin-4-yl)-2-methylbenzofuran-3-carboxamide]",< 1000
7,"CCN1CCC[C@H]1CNC(=O)c1c(C)oc2ccc(OCc3ccccc3)cc12 [Cpd 152, (S)-5-(benzyloxy)-N-((l-ethylpyrrolidin-2-yl)methyl)-2-methylbenzofuran-3-carboxamide]",1000 to 20000
8,"CCN1CCC[C@@H]1CNC(=O)c1c(C)oc2ccc(OCc3ccccc3)cc12 [Cpd 153, (R)-5-(benzyloxy)-N-((l-ethylpyrrolidin-2-yl)methyl)-2-methylbenzofuran-3-carboxamide]",< 1000
9,"Cc1ccc(COc2ccc3oc(C)c(C(=O)NC4CCN(C)CC4)c3c2)cc1 [Cpd 154, 2-methyl-5-((4-methylbenzyl)oxy)-N-(1-methylpiperidin-4-yl)benzofuran-3-carboxamide]",1000 to 20000
10,"Cc1oc2ccc(OCc3ccccc3)cc2c1C(=O)NC1CCN(C)C(C)C1 (centres unmarked) [Cpd 155, 5-(benzyloxy)-N-(1,2-dimethylpiperidin-4-yl)-2-methylbenzofuran-3-carboxamide]",< 1000
11,"Cc1oc2ccc(OCc3ccccc3)cc2c1C(=O)N(C)C1CCN(C)CC1 [Cpd 156, 5-(benzyloxy)-N,2-dimethyl-N-(1-methylpiperidin-4-yl)benzofuran-3-carboxamide]",1000 to 20000
12,"Cc1oc2ccc(OCc3cccc(CN)c3)cc2c1C(=O)NC1CCNC1=O (centres unmarked) [Cpd 157, 5-((3-(aminomethyl)benzyl)oxy)-2-methyl-N-(2-oxopyrrolidin-3-yl)benzofuran-3-carboxamide]",> 20000
13,"Cc1oc2ccc(OCc3ccccc3)cc2c1C(=O)N[C@H]1CN[C@H](C(N)=O)C1 [Cpd 158, (2S,4R)-4-(5-(benzyloxy)-2-methylbenzofuran-3-carboxamido)pyrrolidine-2-carboxamide]",< 1000
14,"COC1CCC(NC(=O)c2c(C)oc3ccc(OCc4ccccc4)cc23)CC1 (centres unmarked) [Cpd 159, 5-(benzyloxy)-N-(4-methoxycyclohexyl)-2-methylbenzofuran-3-carboxamide]",1000 to 20000
15,"Cc1oc2ccc(OCc3ccccc3)cc2c1C(=O)N[C@@H]1CN[C@@H](C(=O)O)C1 [Cpd 163, (2R,4S)-4-(5-(benzyloxy)-2-methylbenzofuran-3-carboxamido)pyrrolidine-2-carboxylic acid]",1000 to 20000
16,"COc1ccccc1COc1ccc2oc(C)c(C(=O)NC3CCNC3=O)c2c1 (centres unmarked) [Cpd 164, 5-((2-methoxybenzyl)oxy)-2-methyl-N-(2-oxopyrrolidin-3-yl)benzofuran-3-carboxamide]",< 1000
17,"Cc1oc2ccc(OCc3ccccc3)cc2c1C(=O)NCCN1CCOCC1 [Cpd 165, 5-(benzyloxy)-2-methyl-N-(2-morpholinoethyl)benzofuran-3-carboxamide]",1000 to 20000
18,"Cc1oc2ccc(OCc3ccccc3)cc2c1C(=O)NC1CC(CO)(CO)C1 [Cpd 166, 5-(benzyloxy)-N-(3,3-bis(hydroxymethyl)cyclobutyl)-2-methylbenzofuran-3-carboxamide]",< 1000
19,"Cc1oc2ccc(OCc3ccccc3)cc2c1C(=O)NC1(CO)CCOCC1 [Cpd 167, 5-(benzyloxy)-N-(4-(hydroxymethyl)tetrahydro-2H-pyran-4-yl)-2-methylbenzofuran-3-carboxamide]",< 1000
20,"Cc1oc2ccc(OCc3cccc(F)c3)cc2c1C(=O)NC1CCN(C)CC1 [Cpd 168, 5-((3-fluorobenzyl)oxy)-2-methyl-N-(1-methylpiperidin-4-yl)benzofuran-3-carboxamide]",1000 to 20000
21,"Cc1ccc(COc2ccc3oc(C)c(C(=O)NS(=O)(=O)C4CC4)c3c2)cc1 [Cpd 169, N-(cyclopropylsulfonyl)-2-methyl-5-((4-methylbenzyl)oxy)benzofuran-3-carboxamide]",1000 to 20000

row,Compound,IC50 [nM]
1,"Cc1cccc(COc2ccc3oc(C)c(C(=O)NS(=O)(=O)C4CC4)c3c2)c1 [Cpd 170, N-(cyclopropylsulfonyl)-2-methyl-5-((3-methylbenzyl)oxy)benzofuran-3-carboxamide]",1000 to 20000
2,"Cc1oc2ccc(OCc3cccc(F)c3F)cc2c1C(=O)NC1CCNC1=O (centres unmarked) [Cpd 171, 5-((2,3-difluorobenzyl)oxy)-2-methyl-N-(2-oxopyrrolidin-3-yl)benzofuran-3-carboxamide]",< 1000
3,"Cc1oc2ccc(OCc3c(F)cccc3F)cc2c1C(=O)NC1CCNC1=O (centres unmarked) [Cpd 172, 5-((2,6-difluorobenzyl)oxy)-2-methyl-N-(2-oxopyrrolidin-3-yl)benzofuran-3-carboxamide]",< 1000
4,"Cc1oc2ccc(OCc3ccccc3)cc2c1C(=O)NC1CCNCC1(F)F (centres unmarked) [Cpd 173, 5-(benzyloxy)-N-(3,3-difluoropiperidin-4-yl)-2-methylbenzofuran-3-carboxamide]",< 1000
5,"Cc1oc2ccc(OCc3ccccc3)cc2c1C(=O)NCC(O)c1cccnc1 (centres unmarked) [Cpd 174, 5-(benzyloxy)-N-(2-hydroxy-2-(pyridin-3-yl)ethyl)-2-methylbenzofuran-3-carboxamide]",1000 to 20000
6,"Cc1oc2ccc(OCc3ccccc3F)cc2c1C(=O)NS(=O)(=O)C1CC1 [Cpd 175, N-(cyclopropylsulfonyl)-5-((2-fluorobenzyl)oxy)-2-methylbenzofuran-3-carboxamide]",< 1000
7,"Cc1oc2ccc(OCc3cccc(F)c3)cc2c1C(=O)NS(=O)(=O)C1CC1 [Cpd 176, N-(cyclopropylsulfonyl)-5-((3-fluorobenzyl)oxy)-2-methylbenzofuran-3-carboxamide]",< 1000
8,"Cc1oc2ccc(OCc3ccc(F)cc3)cc2c1C(=O)NS(=O)(=O)C1CC1 [Cpd 177, N-(cyclopropylsulfonyl)-5-((4-fluorobenzyl)oxy)-2-methylbenzofuran-3-carboxamide]",1000 to 20000
9,"Cc1noc(C)c1CCNC(=O)c1c(C)oc2ccc(OCc3ccccc3)cc12 [Cpd 178, 5-(benzyloxy)-N-(2-(3,5-dimethylisoxazol-4-yl)ethyl)-2-methylbenzofuran-3-carboxamide]",1000 to 20000
10,"Cc1nc(C)n(CCNC(=O)c2c(C)oc3ccc(OCc4ccccc4)cc23)n1 [Cpd 179, 5-(benzyloxy)-N-(2-(3,5-dimethyl-1H-1,2,4-triazol-1-yl)ethyl)-2-methylbenzofuran-3-carboxamide]",1000 to 20000
11,"Cc1oc2ccc(OCc3ccccc3)cc2c1C(=O)NC1CC2(CCNCC2)C1 [Cpd 180, 5-(benzyloxy)-2-methyl-N-(7-azaspiro[3.5]nonan-2-yl)benzofuran-3-carboxamide]",< 1000
12,"Cc1oc2ccc(OCc3ccccc3)cc2c1C(=O)NC1CC2CCC(C1)N2C (centres unmarked) [Cpd 181, 5-(benzyloxy)-2-methyl-N-(8-methyl-8-azabicyclo[3.2.1]octan-3-yl)benzofuran-3-carboxamide]",< 1000
13,"Cc1oc2ccc(OCc3ccccc3)cc2c1C(=O)N[C@@H]1C[C@H]2CC[C@@H](C1)N2C [Cpd 182, 5-(benzyloxy)-2-methyl-N-((1R,3s,5S)-8-methyl-8-azabicyclo[3.2.1]octan-3-yl)benzofuran-3-carboxamide]",< 1000
14,"Cc1oc2ccc(OCc3ccccc3)cc2c1C(=O)N[C@H]1C[C@H]2CC[C@@H](C1)N2C [Cpd 183, 5-(benzyloxy)-2-methyl-N-((1R,3r,5S)-8-methyl-8-azabicyclo[3.2.1]octan-3-yl)benzofuran-3-carboxamide]",< 1000
15,"Cc1oc2ccc(OCc3ccccc3)cc2c1C(=O)N[C@@H]1C[C@H]2CCC[C@@H](C1)N2 [Cpd 184, 5-(benzyloxy)-N-((1R,3s,5S)-9-azabicyclo[3.3.1]nonan-3-yl)-2-methylbenzofuran-3-carboxamide]",< 1000
16,"Cc1oc2ccc(OCc3ccccc3)cc2c1C(=O)NC1CCN(C(C)C)CC1 [Cpd 185, 5-(benzyloxy)-N-(1-isopropylpiperidin-4-yl)-2-methylbenzofuran-3-carboxamide]",< 1000
17,"Cc1oc2ccc(OCc3ccccc3)cc2c1C(=O)NC1CCC(N(C)C)CC1 (centres unmarked) [Cpd 186, 5-(benzyloxy)-N-(4-(dimethylamino)cyclohexyl)-2-methylbenzofuran-3-carboxamide]",< 1000
18,"Cc1oc2ccc(OCc3ccccc3)cc2c1C(=O)NCC1(N(C)C)CCCC1 [Cpd 187, 5-(benzyloxy)-N-((1-(dimethylamino)cyclopentyl)methyl)-2-methylbenzofuran-3-carboxamide]",< 1000
19,"CNC(=O)[C@@H]1C[C@@H](NC(=O)c2c(C)oc3ccc(OCc4ccccc4)cc23)CN1 [Cpd 188, (2S,4R)-4-(5-(benzyloxy)-2-methylbenzofuran-3-carboxamido)-N-methylpyrrolidine-2-carboxamide]",1000 to 20000
20,"Cc1oc2ccc(OCc3ccccc3)cc2c1C(=O)NCCN1CCN(C)CC1 [Cpd 189, 5-(benzyloxy)-2-methyl-N-(2-(4-methylpiperazin-1-yl)ethyl)benzofuran-3-carboxamide]",1000 to 20000
